Reference: the NIST ThermoML archive (doi:10.1016/j.jct.2012.11.020)

Columns and labels:
[1] = 100 kPa, Liquid; for viscosity: Cone and plate viscometry; for mass density: Vibrating tube method; for electrical conductivity: Alternating current cell with electrodes
[2] = xn = mol fraction of the nth substance listed; conditions: 100 kPa, Liquid, x2 = 0; for viscosity: Cone and plate viscometry; for mass density: Vibrating tube method

CC1COC(=O)O1 (configuration not stated) [4-methyl-1,3-dioxolan-2-one]
[1]
Conditions | mass density [kg/m3] | viscosity [mPa·s]
283.15 K | 1216.3 | 4.25
293.15 K | 1205.2 | 2.96
303.15 K | 1194.5 | 2.2
313.15 K | 1183.9 | 1.8
323.15 K | 1173.4 | 1.56
333.15 K | 1162.9 | 1.4
343.15 K | 1152.3 | 1.26
353.15 K | 1141.6 | 1.15

CC1COC(=O)O1 (configuration not stated) [4-methyl-1,3-dioxolan-2-one] + C1CC[NH2+]C1.O=[N+]([O-])[O-]
[2]
Conditions | mass density [kg/m3] | viscosity [mPa·s]
283.15 K | 1216.3 | 4.25
293.15 K | 1205.2 | 2.96
303.15 K | 1194.5 | 2.2
313.15 K | 1183.9 | 1.8
323.15 K | 1173.4 | 1.56
333.15 K | 1162.9 | 1.4
343.15 K | 1152.3 | 1.26
353.15 K | 1141.6 | 1.15

C1CC[NH2+]C1.O=[N+]([O-])[O-] [pyrrolidinium nitrate]
[1]
Conditions | electrical conductivity [S/m] | mass density [kg/m3] | viscosity [mPa·s]
283.15 K | – | 1235 | 58.87
284.15 K | 2.93 | – | –
293.15 K | 3.71 | 1228 | 40.29
298.15 K | 4.22 | – | –
303.15 K | – | 1220.4 | 28.81
304.15 K | 4.94 | – | –
313.15 K | 5.97 | 1213.1 | 20.91
323.15 K | 7.17 | 1205.5 | 16.7
333.15 K | 8.51 | 1197.2 | 13.3
343.15 K | – | 1190.2 | 11.17
344.95 K | 9.3 | – | –
353.15 K | – | 1182 | 9.28
353.65 K | 10.5 | – | –
